From ChEMBL document CHEMBL1201862, “PubChem BioAssay data set” (2004)
The source made the active and inactive calls.

Tests used:
[1] = molecular target: T1, High affinity choline transporter 1 (Homo sapiens, UniProt Q9GZV3); test: human choline transporter blockers, potency – cell-based, 5-point CRC, membrane potential dye, dose response (AID 504840); format: functional
T1 sequence (Q9GZV3 whole entry): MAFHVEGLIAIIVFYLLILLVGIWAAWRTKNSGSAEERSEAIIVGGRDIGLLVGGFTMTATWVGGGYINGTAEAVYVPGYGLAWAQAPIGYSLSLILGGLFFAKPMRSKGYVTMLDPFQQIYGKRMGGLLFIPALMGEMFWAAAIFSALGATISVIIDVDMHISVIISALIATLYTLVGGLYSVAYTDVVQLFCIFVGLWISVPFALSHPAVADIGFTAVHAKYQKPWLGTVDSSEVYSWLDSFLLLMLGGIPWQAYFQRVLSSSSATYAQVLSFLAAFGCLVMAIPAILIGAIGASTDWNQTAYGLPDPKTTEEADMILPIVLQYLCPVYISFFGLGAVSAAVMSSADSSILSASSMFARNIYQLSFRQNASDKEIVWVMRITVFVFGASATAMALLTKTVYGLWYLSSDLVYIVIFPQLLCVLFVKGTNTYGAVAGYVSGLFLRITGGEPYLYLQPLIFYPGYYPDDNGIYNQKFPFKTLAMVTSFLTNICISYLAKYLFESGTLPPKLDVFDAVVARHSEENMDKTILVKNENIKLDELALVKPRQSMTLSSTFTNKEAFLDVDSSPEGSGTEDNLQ

[2] = molecular target: T1, High affinity choline transporter 1; test: human choline transporter blockers, potency – cell-based, 10-point CRC, membrane potential dye, dose response (AID 588401); format: functional;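 further: membrane potential dye fluorescence of choline-evoked depolarization via CHT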
Protein Wnt-3a = Protein Wnt-3a (Mus musculus, UniProt P27467); test: antagonism of Wnt3a pathway luciferase reporter – Wnt-LIGHT cells, luminescence, selectivity assay for Gli-SUFU antagonist project, dose response (AID 651570); format: functional; conditions: read-out: IC50_Mean;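 further: Wnt-LIGHT reporter cells stimulated with conditioned medium from Wnt3a-producing cells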
[3] = Luminescence Cell-Based Dose Retest to Confirm Inhibitors of Cancer Stem Cells. [Related pubchem assays (depositor defined):AID2717, AID2721]; format: functional; conditions: Homo sapiens
Protein RecA = molecular target: T2, Protein RecA (Mycobacterium tuberculosis, UniProt P9WHJ3); test: Fluorescence Cell-Free Homogeneous Dose Retest to Identify Inhibitors of RecA-Intein Splicing Activity. [Related pubchem assays (depositor defined):AID2097, AID2223, AID489010, AID492950]; format: functional
T2 sequence (P9WHJ3 whole entry): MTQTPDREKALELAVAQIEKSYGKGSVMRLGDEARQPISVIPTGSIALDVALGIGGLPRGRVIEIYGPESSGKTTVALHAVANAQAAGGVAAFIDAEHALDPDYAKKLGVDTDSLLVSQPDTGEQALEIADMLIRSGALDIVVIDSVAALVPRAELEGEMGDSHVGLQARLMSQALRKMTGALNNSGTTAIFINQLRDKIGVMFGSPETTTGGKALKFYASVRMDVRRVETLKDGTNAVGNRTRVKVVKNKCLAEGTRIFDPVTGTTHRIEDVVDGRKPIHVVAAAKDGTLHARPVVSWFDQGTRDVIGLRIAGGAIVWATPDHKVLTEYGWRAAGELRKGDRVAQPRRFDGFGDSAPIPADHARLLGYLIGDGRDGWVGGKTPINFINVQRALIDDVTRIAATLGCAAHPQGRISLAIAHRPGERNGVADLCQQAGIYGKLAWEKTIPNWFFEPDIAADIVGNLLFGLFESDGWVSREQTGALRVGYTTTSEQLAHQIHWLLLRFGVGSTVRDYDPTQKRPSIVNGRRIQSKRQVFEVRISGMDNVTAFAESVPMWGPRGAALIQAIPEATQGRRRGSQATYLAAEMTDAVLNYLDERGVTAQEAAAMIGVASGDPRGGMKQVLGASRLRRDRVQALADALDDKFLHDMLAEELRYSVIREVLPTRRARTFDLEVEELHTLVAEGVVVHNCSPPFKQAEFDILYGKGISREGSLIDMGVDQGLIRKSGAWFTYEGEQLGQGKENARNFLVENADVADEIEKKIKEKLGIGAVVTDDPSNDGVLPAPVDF

[4] = molecular target: T3, Heat shock factor protein 1 (Mus musculus, UniProt P38532); test: enhancement of HSF1-driven luciferase signal – cell-based, NIH3T3, luminescence, dose retest, confirmation (AID 435004); format: functional;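 further: stress induced by proteasome inhibitor MG132 added 30 min after compound; luciferase reporter driven by HSF1 response element in NIH3T3 cells; actives raise luminescence as potentiators of the MG132 stress response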
T3 sequence (P38532 whole entry): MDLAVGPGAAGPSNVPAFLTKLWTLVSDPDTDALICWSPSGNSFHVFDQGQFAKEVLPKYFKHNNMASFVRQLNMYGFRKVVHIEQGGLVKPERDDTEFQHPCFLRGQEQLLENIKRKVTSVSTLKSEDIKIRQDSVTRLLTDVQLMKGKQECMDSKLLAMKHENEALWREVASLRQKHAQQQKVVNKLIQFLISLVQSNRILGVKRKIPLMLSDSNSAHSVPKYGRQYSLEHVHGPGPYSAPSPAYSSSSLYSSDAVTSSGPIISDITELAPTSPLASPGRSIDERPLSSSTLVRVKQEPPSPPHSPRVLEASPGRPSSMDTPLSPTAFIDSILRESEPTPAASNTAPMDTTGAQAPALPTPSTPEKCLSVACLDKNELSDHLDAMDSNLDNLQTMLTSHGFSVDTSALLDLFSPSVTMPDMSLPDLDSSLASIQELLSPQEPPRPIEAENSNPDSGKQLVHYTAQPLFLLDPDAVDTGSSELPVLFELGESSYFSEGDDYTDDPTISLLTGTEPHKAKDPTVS

[5] = cAMP pathway inhibition in counterscreen cell line – TR-FRET cAMP detection, counter-screen for MC4R biased antagonist project, dose response (AID 602305); format: functional, cell-based;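 further: U2OS cells stimulated with forskolin near its EC80 as the cAMP inducer; potency is for inhibition of forskolin-stimulated cAMP signaling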
[6] = molecular target: T4, Replicative DNA helicase DnaB (Mycobacterium tuberculosis, UniProt P9WMR3); test: DnaB intein splicing inhibitors, dose response, biochemical, cell-free fluorescence (AID 449749); format: functional
T4 sequence (P9WMR3 whole entry): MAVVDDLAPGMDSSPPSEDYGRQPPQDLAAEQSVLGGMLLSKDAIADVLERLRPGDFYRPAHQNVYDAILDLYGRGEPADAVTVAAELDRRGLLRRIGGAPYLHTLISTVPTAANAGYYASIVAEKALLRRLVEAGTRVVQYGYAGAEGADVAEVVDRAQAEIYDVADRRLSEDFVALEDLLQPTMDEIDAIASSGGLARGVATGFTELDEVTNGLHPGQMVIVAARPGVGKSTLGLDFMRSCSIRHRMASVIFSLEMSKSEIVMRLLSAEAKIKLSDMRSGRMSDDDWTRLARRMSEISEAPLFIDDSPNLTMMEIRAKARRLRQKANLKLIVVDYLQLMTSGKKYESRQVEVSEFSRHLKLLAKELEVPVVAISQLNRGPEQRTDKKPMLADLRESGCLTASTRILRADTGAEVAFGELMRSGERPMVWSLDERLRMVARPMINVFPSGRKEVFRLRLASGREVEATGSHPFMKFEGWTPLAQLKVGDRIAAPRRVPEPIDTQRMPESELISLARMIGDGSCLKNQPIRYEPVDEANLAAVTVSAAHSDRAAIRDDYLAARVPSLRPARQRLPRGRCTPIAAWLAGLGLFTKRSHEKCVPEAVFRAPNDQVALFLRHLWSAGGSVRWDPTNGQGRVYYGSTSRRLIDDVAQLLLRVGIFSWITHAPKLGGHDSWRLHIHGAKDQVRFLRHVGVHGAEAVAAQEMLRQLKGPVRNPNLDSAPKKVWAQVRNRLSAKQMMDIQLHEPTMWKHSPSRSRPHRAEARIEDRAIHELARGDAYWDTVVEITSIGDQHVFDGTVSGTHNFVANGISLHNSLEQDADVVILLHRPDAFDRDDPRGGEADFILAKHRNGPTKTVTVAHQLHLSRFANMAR

Melanocortin receptor 4 = Melanocortin receptor 4 (Homo sapiens, UniProt P32245); test: inhibitors of MC4R cAMP signaling – cell-based, TR-FRET, biased antagonists, dose response (AID 602298); format: functional;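 further: antagonist potency against agonist-stimulated cAMP production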
[7] = bead-based luminescence quenchers, dual-tagged ARNT – biochemical, AlphaScreen, cherry-pick, artefact control for ARNT-TACC3 interaction inhibitor project, dose response (AID 651705); format: functional;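 further: AlphaScreen bead proximity signal that flags compounds interfering with the detection technology; potency reflects signal decrease which marks the compound as an assay artifact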
[8] = loss of viability in HepG2 cells – cell-based, CellTiter-Glo, cherry-picked, cytotoxicity control for Shn3 inhibitor project, dose response (AID 624134); format: functional
[9] = reduction of Shn3 3'UTR-driven luciferase in osteoblasts – cell-based, Clone20 osteoblasts, firefly luciferase, cherry-picked, dose response (AID 624132); format: functional;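 further: firefly luciferase luminescence from reporter carrying the Shn3 3'UTR in osteoblasts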
[10] = non-specific 3'UTR reporter inhibition in Clone20-Shn3RL – cell-based, Renilla luciferase, cherry-picked, counter-screen for Shn3 inhibitor project, dose response (AID 624133); format: functional
[11] = molecular target: T5, Apoptotic protease-activating factor 1 (Homo sapiens, UniProt O14727); test: SAR analysis of small molecule Activators of Apaf-1 in a Fluorescent assay.; format: functional; conditions: read-out: EC50_Mean;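 further: caspase-3 cleavage of fluorogenic Rh110 DEVD substrate downstream of apoptosome activation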
T5 sequence (O14727 whole entry): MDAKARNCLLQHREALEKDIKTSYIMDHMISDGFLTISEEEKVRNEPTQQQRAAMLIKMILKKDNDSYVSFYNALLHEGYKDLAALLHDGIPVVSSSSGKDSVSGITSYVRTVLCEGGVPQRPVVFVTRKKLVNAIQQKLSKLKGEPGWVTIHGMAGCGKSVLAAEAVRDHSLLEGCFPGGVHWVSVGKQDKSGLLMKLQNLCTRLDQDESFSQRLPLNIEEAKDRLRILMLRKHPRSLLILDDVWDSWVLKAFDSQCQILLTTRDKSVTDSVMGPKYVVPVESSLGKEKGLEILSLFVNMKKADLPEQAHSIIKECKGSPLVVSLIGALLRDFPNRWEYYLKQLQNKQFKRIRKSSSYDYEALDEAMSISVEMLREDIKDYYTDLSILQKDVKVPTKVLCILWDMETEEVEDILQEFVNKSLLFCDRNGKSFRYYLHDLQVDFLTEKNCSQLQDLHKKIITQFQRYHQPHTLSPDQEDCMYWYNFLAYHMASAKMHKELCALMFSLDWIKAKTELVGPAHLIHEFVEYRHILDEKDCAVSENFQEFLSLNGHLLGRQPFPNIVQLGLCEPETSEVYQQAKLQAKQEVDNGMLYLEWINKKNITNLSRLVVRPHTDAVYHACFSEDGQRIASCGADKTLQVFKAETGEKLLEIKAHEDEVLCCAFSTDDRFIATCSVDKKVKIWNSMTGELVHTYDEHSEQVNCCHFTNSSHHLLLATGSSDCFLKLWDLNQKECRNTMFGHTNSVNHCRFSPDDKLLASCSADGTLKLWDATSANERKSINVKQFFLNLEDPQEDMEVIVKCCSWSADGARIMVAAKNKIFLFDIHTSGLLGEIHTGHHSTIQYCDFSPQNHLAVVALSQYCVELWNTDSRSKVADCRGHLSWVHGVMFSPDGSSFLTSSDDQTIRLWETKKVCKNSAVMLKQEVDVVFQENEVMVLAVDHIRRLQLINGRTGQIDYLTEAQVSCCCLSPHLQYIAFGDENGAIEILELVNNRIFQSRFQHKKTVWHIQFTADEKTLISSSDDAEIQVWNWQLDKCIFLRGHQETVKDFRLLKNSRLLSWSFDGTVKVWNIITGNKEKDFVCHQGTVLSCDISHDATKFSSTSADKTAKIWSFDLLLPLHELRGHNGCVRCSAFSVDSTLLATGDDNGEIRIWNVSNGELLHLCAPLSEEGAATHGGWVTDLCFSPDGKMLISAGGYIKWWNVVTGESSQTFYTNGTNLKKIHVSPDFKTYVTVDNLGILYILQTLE

[12] = HPDE-C7 pancreatic duct cell viability loss – fluorescence, HTS (AID 430); format: functional, cell-based; conditions: Homo sapiens
[13] = viability loss of HPDE-C7K cells – cell-based, fluorescence, HTS, primary screen (AID 431); format: functional; conditions: Homo sapiens

Protein Wnt-3a, sequence (P27467 whole entry): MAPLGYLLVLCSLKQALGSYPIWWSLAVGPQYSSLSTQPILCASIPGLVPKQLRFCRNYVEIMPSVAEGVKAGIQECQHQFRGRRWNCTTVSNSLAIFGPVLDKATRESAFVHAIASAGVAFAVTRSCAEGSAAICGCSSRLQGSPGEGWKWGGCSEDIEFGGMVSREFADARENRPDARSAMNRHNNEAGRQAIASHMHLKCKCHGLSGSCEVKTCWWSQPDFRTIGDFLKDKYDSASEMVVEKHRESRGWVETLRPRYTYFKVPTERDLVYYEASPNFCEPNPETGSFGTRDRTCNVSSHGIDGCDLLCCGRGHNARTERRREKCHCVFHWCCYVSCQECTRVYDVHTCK
Melanocortin receptor 4, sequence (P32245 whole entry): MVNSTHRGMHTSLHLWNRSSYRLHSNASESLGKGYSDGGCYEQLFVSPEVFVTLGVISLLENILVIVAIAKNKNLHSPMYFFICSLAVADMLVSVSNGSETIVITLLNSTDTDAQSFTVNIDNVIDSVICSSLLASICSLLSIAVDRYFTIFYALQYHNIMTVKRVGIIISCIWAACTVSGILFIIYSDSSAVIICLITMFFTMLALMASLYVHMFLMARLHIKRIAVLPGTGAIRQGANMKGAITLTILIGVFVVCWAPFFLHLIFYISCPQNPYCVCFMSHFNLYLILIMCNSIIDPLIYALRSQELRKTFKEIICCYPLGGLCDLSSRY

CC(C)(C)NCC(O)c1cc(O)cc(O)c1 (stereo not given)
IC50 [1]: 0.0841 µM (active) | IC50 [2]: 14.2 nM (active)

O=[N+]([O-])c1ccc(CSc2nnc3ccccn23)cc1
IC50 [1]: 4.29 µM (active) | IC50 [2]: 800 nM (active)

COc1ccc(CN(C)Cc2nc(Cc3cccc(F)c3)no2)c2cccnc12
IC50 (Protein Wnt-3a): 2.18 µM (active)

O=C(C[S+]([O-])c1ccc(C(F)(F)F)cc1[N+](=O)[O-])Oc1ccccc1 (stereo not given)
IC50 [1]: 12.3 µM (active) | AC50 [3]: 3.71 µM (active) | EC50 (Protein RecA): 4.59 µM (active) | EC50 [4]: 22.7 µM (active) | IC50 [5]: > 64.6 µM (inactive) | AC50 [6]: 10.4 µM (active) | IC50 (Melanocortin receptor 4): 13.5 µM (inactive)

Nc1nc(O)nc(Nc2ccccc2)c1N=O
AC50 [7]: 111 µM (active)

COc1ccc(CNCC(O)COc2cccc3c2OC(C)(C)C3)cc1 (stereo not given)
AC50 [8]: 49.4 µM (active) | IC50 (Protein Wnt-3a): 3.22 µM (active) | AC50 [9]: 1.68 µM (active) | AC50 [10]: 1.57 µM (active)

Cc1ccc(-n2nc3ccc(NC(=S)NC(=O)/C=C/c4ccco4)cc3n2)cc1
IC50 [5]: > 64.6 µM (inactive) | IC50 (Melanocortin receptor 4): 55.6 µM (inactive)

CC(CC(F)(F)F)C(=O)O (stereo not given)
EC50 [11]: > 100 µM (inactive)

CCN(CC)S(=O)(=O)c1cc(C(=O)Nc2nncs2)c(Cl)cc1Cl
IC50 [1]: 7.64 µM (active) | IC50 [2]: 6210 nM (active) | EC50 [12]: 13.5 µM (active) | EC50 [13]: > 20 µM (not active)

COc1ccc(C2=N[C@H](C(=O)O)CO2)cc1C(F)(F)F
EC50 [11]: > 100 µM (inactive)
